Laboratory results published in US20080233221A1, “Prostate cancer and benign prostatic hyperplasia treatments” (State of Oregon, priority 2007, published 2008).

Key:
Format in all cases: cell-based, human
[1] = Cell viability by MTT assay in BPH-1 cells; settings: human
Description: (§1) Human benign prostate hyperplasia epithelial cells (BPH-1) were obtained from Dr. Simon W. Hayward (Vanderbilt University, Nashville, Tenn.) and malignant androgen-independent prostate cancer epithelial cells (PC-3) were obtained from American Type Tissue Collection (Manassas, Va.). Cells were grown and maintained in RPMI 1640 with glutamine (Mediatech, Inc., Herndon, Va.) supplemented with 5% (BPH-1) or 10% (PC-3) fetal bovine serum (Hyclone, Logan, Utah) and 1% penicillin-streptomycin (Mediatech, Inc., Herndon, Va.). All cell types were maintained in 5% CO2 at 37° C.
(§2) XN was isolated from hop cones as described previously (Stevens et al., J. Chromatogr. A 832 (1999) 97-107). Its oxidation product, xanthoaurenol (XAL), was prepared from xanthohumol (XN) by treatment with peroxynitrite. The structure of XAL was determined by mass spectrometry, NMR spectroscopy and X-ray diffraction analysis. Prenylflavonoids were dissolved in 100% methanol and were added to the culture medium at a final concentration of 2.5-200 μmol/L, depending on desired treatment. All treatments were done at approximately 50-70% confluency. As a control, methanol was added to culture medium equivalent to hop treatment.
(§3) Cells were seeded into 24-well plates (50,000 cells per well). After 24 h, cells were treated with either XN or XAL as described above. Cell viability was evaluated by MTT assay as described by Mossmann et al., J. Immunol. Methods 65 (1983) 55-63. Production of formazan product was detected in a Molecular Devices SpectraMax (Molecular Devices, Sunnyvale, Calif.) at 580 nm.

BPH-1 cells [2] = experiment: Cell viability by MTT assay in BPH-1 cells; settings: BPH-1 cells, 48 h; for cell viability (number of viable cells): MTT
Description: as §1, §2, §3

[3] = Cell viability by MTT assay in PC-3 cells; settings: human
Description: as §1, §2, §3

PC-3 cells [4] = experiment: Cell viability by MTT assay in PC-3 cells; settings: PC3 cells, 48 h; for cell viability (number of viable cells): MTT
Description: as §1, §2, §3

BPH-1 cells [5] = experiment: Multicaspase assay (SR-VAD-FMK/7AAD flow cytometry) in BPH-1 cells; settings: 48 h
Description: (§4) FIG. 3 sets forth data relating to xanthohumol and xanthoaurenol induction of caspase activity in BPH-1 and PC-3 cells. Cells were treated with XN or XAL for 48 h. Induction of apoptosis was measured using a multi-caspase assay. SR-VAD-FMK covalently binds caspases and positively stained cells were assessed by flow cytometry as a measure of caspase activation. 7-Amino-actinomycin D (7AAD), a nucleotide stain that only stains cells when membrane integrity is compromised, was used to differentiate between early and late apoptotic cells. SR-VAD-FMK(+) 7AAD(−) cells are undergoing early-mid apoptosis, […] late stage apoptotic cells. Values are mean±SD, n=3. *P<0.05, **P<0.01.
(§5) At various times after treatment with XN or XAL, adherent and floating cells were collected for analysis. Apoptosis was assessed using a flow cytometry based nexin and multicaspase assay kits (Guava Technologies, Burlingame, Calif.). The nexin assay is based on measurement of externalization of phosphatidyl serine, a common characteristic of cells undergoing apoptosis. The multicaspase assay is based on measurement of caspase enzymes activated during apoptosis. Cells were trypsinized, washed in D-PBS and stained with Annexin V, sulforhodamine-valyl-alanyl-aspartyl-fluoromethyl-ketone (SR-VAD-FMK), and 7-amino-actinomycin D (7AAD) according to the manufactures instructions. Cell populations were quantified using Guava personal cytometer (Guava Technologies, Burlingame, Calif.).

PC-3 cells [6] = experiment: Multicaspase assay (SR-VAD-FMK/7AAD flow cytometry) in PC-3 cells; settings: 48 h
Description: as §4
At various times after treatment with XN or XAL, adherent and floating cells were collected for analysis. Apoptosis was assessed using a flow cytometry based nexin and multicaspase assay kits (Guava Technologies, Burlingame, Calif.). The nexin assay is based on measurement of externalization of phosphatidyl serine, a common characteristic of cells undergoing apoptosis. The multicaspase assay is based on measurement of caspase enzymes activated during apoptosis. […] Cell populations were quantified using Guava personal cytometer (Guava Technologies, Burlingame, Calif.).

BPH-1 cells [7] = experiment: Annexin V (nexin) apoptosis assay in BPH-1 cells; settings: 20 μM
Description: FIG. 4 sets forth data relating to xanthohumol and xanthoaurenol induction of apoptosis in BPH-1 and PC-3 cells. Cells were treated with XN and XAL and apoptosis was detected using the Annexin V assay. Externalization of phosphatidyl serine, an early marker of apoptosis was detected by flow cytometry after staining with Annexin V-PE and 7AAD. Annexin V(+) 7AAD(−) cells are undergoing early apoptosis, and Annexin V(+) 7AAD(+) are undergoing late apoptosis. Values are mean±SD, n=3. *P<0.05, **P<0.01.
as §5

BPH-1 cells [8] = experiment: Cell cycle analysis (propidium iodide flow cytometry) in BPH-1 cells; settings: for cell cycle modification: 10 and 20 μM
Description: At various time points after treatment with XN and XAL, adherent and floating cells were collected and fixed in 70% ethanol at one million cells per aliqout. Samples were centrifuged at 500×g, washed with PBS, and resuspended in cellular DNA staining solution containing […] propidium iodide (Sigma, St Louis, Mo.) and 100 μg/mL RNase (Sigma, St Louis, Mo.) in PBS. After 30-min incubation at room temperature, cell populations were quantified using Guava personal cytometer. Data analysis was performed using Multi Cycle software (Phoenix Flow Systems, San Diego, Calif.).
In Table 1, Cells were treated with 0, 10 or 20 μM XN or XAL, as indicated, and harvested after 48 h. Attached and floating cells were fixed in 70% ethanol and stained with propidium iodide, and cell cycle kinetics were examined using the Guava PCA, followed by data analysis with Multi-Cycle software.

NFκB [9] = experiment: NFκB activation, transcription factor binding ELISA, nuclear extracts of BPH-1 cells; settings: 20 μM, 48 h
Description: (§6) FIG. 5 sets forth data relating to xanthohumol and xanthoaurenol inhibit NFκB activation in nuclear extracts of BPH-1 cells. Cells were treated with XN or XAL for 48 h. (A) Cells were harvested by scraping and then subjected to nuclear extraction. NFκB activation was determined using transcription factor binding ELISA as described in Section 2. Equal protein loading was confirmed using β-actin. Results are representative of two or more separate experiments. (B) BPH-1 cells were treated with XN or XAL for 48 h and detection of p65 nuclear protein was performed with immunoblotting methods. (C) No inhibition of NFκB activation in treated PC3 cells. Results are mean±SD, n=3. **P<0.01.
(§7) NFκB Activity was measured using Trans AM NFκB p65/p50 Transcription Factor Assay Kit (Active Motif, CA). Cytosolic and nuclear extracts were prepared from cells by using Nuclear Extraction Kit (Active Motif, Carlsbad, Calif.). Nuclear extract samples (10 μg) were added to a 96 well plate with immobilized oligonucleotide containing the NFκB consensus site (5′-GGGACTTTCC-3′). Sample wells were incubated with primary antibody specific for NFκB, followed by incubation with an HRP-conjugated secondary antibody, followed by quantification at OD 580 using a plate reader (Molecular Devices, Sunnyvale, Calif.).

NFκB [10] = experiment: NFκB activation, transcription factor binding ELISA, PC3 cells
Description: as §6, §7

[11] = system: pro-apoptotic proteins Bax and p53 and anti-apoptotic protein Bcl-2; experiment: Western blot of Bax, p53 and Bcl-2 in whole cell lysates of BPH-1 cells; settings: for expression of pro-apoptotic protein Bax / expression of pro-apoptotic protein p53: 10 and 20 μM; for expression of pro-apoptotic protein Bax / expression of pro-apoptotic protein p53 / expression of anti-apoptotic protein Bcl-2: 48 h
Description: FIG. 6 sets forth data relating to xanthohumol and xanthoaurenol induce expression of proapoptotic proteins p53 and bax, with down-regulation of antiapoptotic proteins bcl-2 in BPH-1 cells. Western blot of pro-apoptotic proteins Bax and p53 and anti-apoptotic protein Bcl-2 were performed from whole cell lysates of BPH-1 cells treated with XN and XAL for 48 h. Blots are representative of three individual experiments.
Cells were lysed in RIPA buffer and whole cell lysate protein concentrations were determined using a detergent-compatible protein assay (BioRad, CA). Proteins (15-35 μg) were separated by SDS-PAGE under standard conditions and were transferred to a nitrocellulose membrane (Biorad, CA) at 300 mA for 2 h. Antibody dilutions were as follows: Bax (BD Pharmingen, 1:500 dilution), Bcl-2 (Santa Cruz Biotechnology, 1:1000 dilution), p53 (Santa Cruz Biotechnology, 1:1000 dilution), NFκB p65 (Santa Cruz Biotechnology, 1:1000 dilution), actin (Sigma, 1:5000 dilution). Actin was used to confirm equal protein loading between samples. Protein was detected using chemiluminescence reagents (Pierce, Rockford, Ill.) with image analysis on Alpha Innotech photodocumentation system (Alpha Innotech, Hayward, Calif.).

NFκB p65 = experiment: Immunoblot of p65 nuclear protein in BPH-1 cells; settings: 48 h
Description: as §6
Cells were lysed in RIPA buffer and whole cell lysate protein concentrations were determined using a detergent-compatible protein assay (BioRad, CA). Proteins (15-35 μg) were separated by SDS-PAGE under standard conditions and were transferred to a nitrocellulose membrane (Biorad, CA) at 300 mA for 2 h. […] Protein was detected using chemiluminescence reagents (Pierce, Rockford, Ill.) with image analysis on Alpha Innotech photodocumentation system (Alpha Innotech, Hayward, Calif.).

| SMILES | cytotoxicity at 48 h, 20 μM [1] | cell viability (number of viable cells) (BPH-1 cells [2]) | cytotoxicity at 48 h, 20 μM [3] | cell viability (number of viable cells) (PC-3 cells [4]) | SR-VAD-FMK(+) 7AAD(+) cells (late apoptosis) (BPH-1 cells [5]) | SR-VAD-FMK(+) 7AAD(−) cells (caspase activation, early to mid stage apoptosis) (BPH-1 cells [5]) | SR-VAD-FMK stained cells (caspase activation) (PC-3 cells [6]) | Annexin V(+) 7AAD(+) cells (late apoptosis) (BPH-1 cells [7]) | Annexin V(+) 7AAD(−) cells (early apoptosis) (BPH-1 cells [7]) | cell cycle modification (BPH-1 cells [8]) | decrease in NFκB activity (NFκB [9]) | NFκB activation (NFκB [10]) | increase in expression of Bax and p53 compared with XAL [11] | expression of pro-apoptotic protein Bax [11] | expression of pro-apoptotic protein p53 [11] | expression of anti-apoptotic protein Bcl-2 [11] | NFκB p65 protein levels in the nuclear fraction (NFκB p65) | viability decreased to (BPH-1 cells [2]; concentration of XAL not given) | viability decreased to (PC-3 cells [4]; concentration of XAL not given) | G1, percentage of cells in phase (BPH-1 cells [8]; 20 μM, 48 h, mean ± SE, n=3) |
| --- | --- | --- | --- | --- | --- | --- | --- | --- | --- | --- | --- | --- | --- | --- | --- | --- | --- | --- | --- | --- |
| COc1cc(O)c(CC=C(C)C)c(O)c1C(=O)/C=C/c1ccc(O)cc1 [XN, xanthohumol] | 80% | dose-dependent decrease in number of viable | 43% | dose-dependent decrease in number of viable | increase | increase | increase only in late apoptotic SR-VAD-FMK(+) 7AAD(+) cells | increase | increase | clear accumulation in the S phase | 42% | No inhibition | larger increase in expression of Bax and p53 than did treatment with XAL | Increase | Increase | decreased expression | increased | – | – | – |
| COc1cc(O)c(CC=C(C)C)c2c1C(=O)/C(=C/Oc1ccc(O)cc1)O2 [XAL, xanthoaurenol] | – | dose-dependent decrease in number of viable | – | dose-dependent decrease in number of viable | increase | increase | increase only in late apoptotic SR-VAD-FMK(+) 7AAD(+) cells | increase | increase | clear accumulation in the S phase | 42% | No inhibition | – | Increase | Increase | decreased expression | increased | 81% | 55% | 45.730 ± 1.376% |
| O=C(O[C@@H]1Cc2c(O)cc(O)cc2O[C@@H]1c1cc(O)c(O)c(O)c1)c1cc(O)c(O)c(O)c1 [epigallocatechin gallate, reference compound] | – | did not significantly decrease cell viability | – | – | – | – | – | – | – | – | – | – | – | – | – | – | – | – | – | – |
